Laboratory results from ChEMBL document CHEMBL4387741, “Optimization of novel reversible Bruton's tyrosine kinase inhibitors identified using Tethering-fragment-based screens” (Bioorg Med Chem, 2019).

Experiments:
[1] = molecular target: Serine/threonine-protein kinase tousled-like 1 (Homo sapiens) (UniProt Q9UKI8); assay: Inhibition of wild-type human partial length TLK1 (K447 to A754 residues) expressed in bacterial expression system at 1 uM by Kinomescan method relative to control
[2] = molecular target: Serine/threonine-protein kinase RIO1 (Homo sapiens) (UniProt Q9BRS2); assay: Inhibition of wild-type human full length RIOK1 (M1 to K568 residues) expressed in bacterial expression system at 1 uM by Kinomescan method relative to control
[3] = test system: Receptor-type tyrosine-protein kinase FLT3 (Homo sapiens), P36888 [D835H]; assay: Inhibition of human partial length FLT3 D835H mutant (V592 to Y969 residues) expressed in bacterial expression system at 1 uM by Kinomescan method relative to control
[4] = molecular target: Tyrosine-protein kinase ZAP-70 (Homo sapiens) (UniProt P43403); assay: Inhibition of wild-type human partial length ZAP70 (D20 to G299 residues) expressed in mammalian expression system at 1 uM by Kinomescan method relative to control
[5] = molecular target: Proto-oncogene tyrosine-protein kinase Src (Homo sapiens) (UniProt P12931); assay: Inhibition of wild-type human partial length SRC (L240 to L536 residues) expressed in bacterial expression system at 1 uM by Kinomescan method relative to control
[6] = molecular target: Protein kinase C iota type (Homo sapiens) (UniProt P41743); assay: Inhibition of wild-type human partial length PRKCI (H215 to V587 residues) expressed in mammalian expression system at 1 uM by Kinomescan method relative to control
[7] = molecular target: Tyrosine-protein kinase CSK (Homo sapiens) (UniProt P41240); assay: Inhibition of wild-type human full length CSK (M1 to L450 residues) expressed in bacterial expression system at 1 uM by Kinomescan method relative to control
[8] = molecular target: Tyrosine-protein kinase receptor Tie-1 (Homo sapiens) (UniProt P35590); assay: Inhibition of wild-type human partial length TIE1 (T819 to A1138 residues) expressed in bacterial expression system at 1 uM by Kinomescan method relative to control
[9] = molecular target: Inhibitor of nuclear factor kappa-B kinase subunit alpha (Homo sapiens) (UniProt O15111); assay: Inhibition of wild-type human full length IKK-alpha (M1 to E745 residues) expressed in mammalian expression system at 1 uM by Kinomescan method relative to control
[10] = molecular target: Serine/threonine-protein kinase SIK3 (Homo sapiens) (UniProt Q9Y2K2); assay: Inhibition of wild-type human partial length QSK (A90 to L395 residues) expressed in mammalian expression system at 1 uM by Kinomescan method relative to control
[11] = molecular target: Serine/threonine-protein kinase Nek10 (Homo sapiens) (UniProt Q6ZWH5); assay: Inhibition of wild-type human partial length NEK10 (L488 to R809 residues) expressed in mammalian expression system at 1 uM by Kinomescan method relative to control
[12] = molecular target: Serine/threonine-protein kinase PAK 4 (Homo sapiens) (UniProt O96013); assay: Inhibition of wild-type human partial length PAK4 (Q144 to R438 residues) expressed in bacterial expression system at 1 uM by Kinomescan method relative to control
[13] = molecular target: Casein kinase I isoform gamma-3 (Homo sapiens) (UniProt Q9Y6M4); assay: Inhibition of wild-type human full length CSNK1G3 (M1 to K447 residues) expressed in bacterial expression system at 1 uM by Kinomescan method relative to control
[14] = molecular target: Fibroblast growth factor receptor 4 (Homo sapiens) (UniProt P22455); assay: Inhibition of wild-type human partial length FGFR4 (G402 to E713 residues) expressed in bacterial expression system at 1 uM by Kinomescan method relative to control
[15] = molecular target: Myosin light chain kinase, smooth muscle (Homo sapiens) (UniProt Q15746); assay: Inhibition of wild-type human full length MYLK (M854 to E1845 residues) expressed in mammalian expression system at 1 uM by Kinomescan method relative to control
[16] = molecular target: Serine/threonine-protein kinase Nek5 (Homo sapiens) (UniProt Q6P3R8); assay: Inhibition of wild-type human partial length NEK5 (M1 to M279 residues) expressed in bacterial expression system at 10 uM by Kinomescan method relative to control
[17] = molecular target: Mast/stem cell growth factor receptor Kit (Homo sapiens) (UniProt P10721); assay: Inhibition of wild-type human partial length KIT (I571 to D952 residues) expressed in bacterial expression system at 10 uM by Kinomescan method relative to control
[18] = molecular target: Serine/threonine-protein kinase pim-2 (Homo sapiens) (UniProt Q9P1W9); assay: Inhibition of wild-type human partial length PIM2 (M1 to E291 residues) expressed in bacterial expression system at 10 uM by Kinomescan method relative to control
[19] = molecular target: Receptor-interacting serine/threonine-protein kinase 4 (Homo sapiens) (UniProt P57078); assay: Inhibition of wild-type human partial length RIPK4 (M1 to V303 residues) expressed in mammalian expression system at 10 uM by Kinomescan method relative to control
[20] = molecular target: Serine/threonine-protein kinase LATS2 (Homo sapiens) (UniProt Q9NRM7); assay: Inhibition of wild-type human partial length LATS2 (Q641 to V1088 residues) expressed in mammalian expression system at 10 uM by Kinomescan method relative to control
[21] = test system: Receptor-type tyrosine-protein kinase FLT3 (Homo sapiens), P36888 [UNDEFINED MUTATION]; assay: Inhibition of human partial length FLT3 ITD/D835V double mutant expressed in bacterial expression system at 10 uM by Kinomescan method relative to control
[22] = molecular target: G protein-coupled receptor kinase 3 (Homo sapiens) (UniProt P35626); assay: Inhibition of wild-type human full length GRK3 (M1 to L688 residues) expressed in mammalian expression system at 10 uM by Kinomescan method relative to control
[23] = molecular target: Serine/threonine-protein kinase Nek1 (Homo sapiens) (UniProt Q96PY6); assay: Inhibition of wild-type human partial length NEK1 (M1 to K278 residues) expressed in bacterial expression system at 10 uM by Kinomescan method relative to control
[24] = molecular target: Rhodopsin kinase GRK1 (Homo sapiens) (UniProt Q15835); assay: Inhibition of wild-type human full length GRK1 (M1 to S563 residues) expressed in mammalian expression system at 10 uM by Kinomescan method relative to control
[25] = test system: Tyrosine-protein kinase ABL1 (Homo sapiens), P00519 [E255K]; assay: Inhibition of human phosphorylated ABL1 E255K mutant (S229 to K512 residues) expressed in mammalian expression system at 10 uM by Kinomescan method relative to control
[26] = molecular target: Serine/threonine-protein kinase 36 (Homo sapiens) (UniProt Q9NRP7); assay: Inhibition of wild-type human partial length STK36 (M1 to T271 residues) expressed in bacterial expression system at 10 uM by Kinomescan method relative to control
[27] = molecular target: Casein kinase I isoform alpha (Homo sapiens) (UniProt P48729); assay: Inhibition of wild-type human partial length CSNK1A1 (M1 to L450 residues) expressed in mammalian expression system at 10 uM by Kinomescan method relative to control

Sequence of Serine/threonine-protein kinase Nek10 (Homo sapiens) (Q6ZWH5 whole entry, the tested form may be a part): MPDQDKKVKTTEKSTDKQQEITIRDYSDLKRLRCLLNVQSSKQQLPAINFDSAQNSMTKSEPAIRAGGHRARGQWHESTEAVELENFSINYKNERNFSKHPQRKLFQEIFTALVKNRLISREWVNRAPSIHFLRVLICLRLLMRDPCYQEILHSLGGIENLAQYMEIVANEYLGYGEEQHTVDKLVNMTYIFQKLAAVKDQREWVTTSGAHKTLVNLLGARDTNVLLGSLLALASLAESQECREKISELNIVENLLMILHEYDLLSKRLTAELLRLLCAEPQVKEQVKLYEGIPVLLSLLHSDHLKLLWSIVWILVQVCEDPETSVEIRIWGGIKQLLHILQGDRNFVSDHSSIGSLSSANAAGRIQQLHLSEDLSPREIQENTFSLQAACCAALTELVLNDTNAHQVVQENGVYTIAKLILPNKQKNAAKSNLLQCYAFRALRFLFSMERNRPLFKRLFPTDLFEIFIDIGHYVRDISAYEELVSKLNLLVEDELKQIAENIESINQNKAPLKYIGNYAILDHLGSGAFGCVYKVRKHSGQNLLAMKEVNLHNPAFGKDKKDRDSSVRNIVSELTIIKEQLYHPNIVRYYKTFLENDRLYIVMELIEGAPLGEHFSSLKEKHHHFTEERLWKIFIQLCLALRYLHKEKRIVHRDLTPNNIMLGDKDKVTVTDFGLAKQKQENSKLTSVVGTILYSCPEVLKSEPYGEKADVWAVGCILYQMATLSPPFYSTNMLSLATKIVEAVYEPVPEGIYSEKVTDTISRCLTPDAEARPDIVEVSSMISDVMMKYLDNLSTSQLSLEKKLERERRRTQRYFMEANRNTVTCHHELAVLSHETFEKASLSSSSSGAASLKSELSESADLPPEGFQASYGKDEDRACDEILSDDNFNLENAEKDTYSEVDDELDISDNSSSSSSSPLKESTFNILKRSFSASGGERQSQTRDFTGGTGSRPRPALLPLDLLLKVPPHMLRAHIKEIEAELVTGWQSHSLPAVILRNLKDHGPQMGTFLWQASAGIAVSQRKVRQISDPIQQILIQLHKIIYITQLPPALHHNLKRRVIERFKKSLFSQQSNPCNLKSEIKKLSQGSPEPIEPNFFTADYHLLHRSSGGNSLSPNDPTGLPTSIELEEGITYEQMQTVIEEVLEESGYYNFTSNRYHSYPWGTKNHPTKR
Sequence of Tyrosine-protein kinase receptor Tie-1 (Homo sapiens) (P35590 whole entry, the tested form may be a part): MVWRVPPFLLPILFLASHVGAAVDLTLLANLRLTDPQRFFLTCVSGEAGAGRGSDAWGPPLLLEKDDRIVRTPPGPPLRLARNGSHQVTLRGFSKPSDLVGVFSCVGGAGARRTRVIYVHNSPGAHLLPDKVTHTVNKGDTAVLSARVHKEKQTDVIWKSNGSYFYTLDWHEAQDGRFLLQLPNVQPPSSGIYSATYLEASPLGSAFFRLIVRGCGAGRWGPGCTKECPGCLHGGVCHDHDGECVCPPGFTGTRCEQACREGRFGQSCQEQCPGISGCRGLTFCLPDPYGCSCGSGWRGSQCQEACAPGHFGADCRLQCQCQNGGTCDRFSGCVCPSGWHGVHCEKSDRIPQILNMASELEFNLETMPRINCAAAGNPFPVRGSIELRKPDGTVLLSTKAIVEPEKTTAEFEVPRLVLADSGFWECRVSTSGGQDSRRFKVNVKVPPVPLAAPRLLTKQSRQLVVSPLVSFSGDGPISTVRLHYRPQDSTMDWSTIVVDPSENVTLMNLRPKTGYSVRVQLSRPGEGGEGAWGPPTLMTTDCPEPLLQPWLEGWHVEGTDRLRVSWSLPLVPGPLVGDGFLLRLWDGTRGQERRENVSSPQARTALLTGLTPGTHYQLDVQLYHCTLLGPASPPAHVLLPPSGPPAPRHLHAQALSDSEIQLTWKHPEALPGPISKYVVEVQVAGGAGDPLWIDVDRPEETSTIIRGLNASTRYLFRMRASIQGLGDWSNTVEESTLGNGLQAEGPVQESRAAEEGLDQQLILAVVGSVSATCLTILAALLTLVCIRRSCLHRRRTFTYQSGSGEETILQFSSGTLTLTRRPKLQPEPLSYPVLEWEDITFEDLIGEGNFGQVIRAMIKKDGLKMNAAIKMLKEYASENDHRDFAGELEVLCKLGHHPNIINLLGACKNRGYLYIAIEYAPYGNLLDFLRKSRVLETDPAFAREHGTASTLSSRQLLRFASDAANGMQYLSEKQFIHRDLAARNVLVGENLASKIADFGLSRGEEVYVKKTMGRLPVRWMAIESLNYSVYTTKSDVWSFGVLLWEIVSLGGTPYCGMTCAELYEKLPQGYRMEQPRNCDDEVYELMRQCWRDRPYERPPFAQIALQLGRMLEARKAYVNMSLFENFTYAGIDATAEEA
Sequence of Tyrosine-protein kinase ABL1 (Homo sapiens), P00519 [E255K] (P00519 whole entry E255K, the tested form may be a part): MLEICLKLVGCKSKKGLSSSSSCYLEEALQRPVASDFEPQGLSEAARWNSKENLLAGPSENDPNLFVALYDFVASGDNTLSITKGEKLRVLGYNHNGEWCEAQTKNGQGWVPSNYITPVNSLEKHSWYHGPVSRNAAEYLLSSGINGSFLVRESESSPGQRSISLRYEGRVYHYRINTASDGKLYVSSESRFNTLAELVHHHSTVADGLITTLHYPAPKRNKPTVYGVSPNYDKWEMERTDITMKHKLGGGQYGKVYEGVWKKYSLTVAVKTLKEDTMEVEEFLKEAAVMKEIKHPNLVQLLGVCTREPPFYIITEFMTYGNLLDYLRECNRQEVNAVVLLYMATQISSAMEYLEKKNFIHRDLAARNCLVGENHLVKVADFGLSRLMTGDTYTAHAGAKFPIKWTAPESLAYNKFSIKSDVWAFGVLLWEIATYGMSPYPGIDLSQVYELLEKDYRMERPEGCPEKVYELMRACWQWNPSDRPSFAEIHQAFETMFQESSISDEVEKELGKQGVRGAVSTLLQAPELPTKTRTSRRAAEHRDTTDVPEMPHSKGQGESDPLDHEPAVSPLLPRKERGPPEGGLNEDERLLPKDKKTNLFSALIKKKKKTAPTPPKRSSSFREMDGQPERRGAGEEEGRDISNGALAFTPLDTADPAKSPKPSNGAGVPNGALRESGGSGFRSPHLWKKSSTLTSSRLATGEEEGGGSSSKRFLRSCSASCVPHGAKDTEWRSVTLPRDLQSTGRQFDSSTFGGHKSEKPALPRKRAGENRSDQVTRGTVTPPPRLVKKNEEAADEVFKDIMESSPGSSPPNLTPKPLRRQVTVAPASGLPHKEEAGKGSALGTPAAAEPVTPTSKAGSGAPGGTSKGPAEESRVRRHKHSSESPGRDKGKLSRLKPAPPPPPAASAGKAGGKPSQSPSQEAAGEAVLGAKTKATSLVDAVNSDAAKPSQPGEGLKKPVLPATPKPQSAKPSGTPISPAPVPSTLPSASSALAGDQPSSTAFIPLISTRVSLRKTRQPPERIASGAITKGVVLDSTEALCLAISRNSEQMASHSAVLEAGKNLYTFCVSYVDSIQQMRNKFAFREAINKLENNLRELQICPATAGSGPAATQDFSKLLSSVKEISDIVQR
Sequence of Serine/threonine-protein kinase LATS2 (Homo sapiens) (Q9NRM7 whole entry, the tested form may be a part): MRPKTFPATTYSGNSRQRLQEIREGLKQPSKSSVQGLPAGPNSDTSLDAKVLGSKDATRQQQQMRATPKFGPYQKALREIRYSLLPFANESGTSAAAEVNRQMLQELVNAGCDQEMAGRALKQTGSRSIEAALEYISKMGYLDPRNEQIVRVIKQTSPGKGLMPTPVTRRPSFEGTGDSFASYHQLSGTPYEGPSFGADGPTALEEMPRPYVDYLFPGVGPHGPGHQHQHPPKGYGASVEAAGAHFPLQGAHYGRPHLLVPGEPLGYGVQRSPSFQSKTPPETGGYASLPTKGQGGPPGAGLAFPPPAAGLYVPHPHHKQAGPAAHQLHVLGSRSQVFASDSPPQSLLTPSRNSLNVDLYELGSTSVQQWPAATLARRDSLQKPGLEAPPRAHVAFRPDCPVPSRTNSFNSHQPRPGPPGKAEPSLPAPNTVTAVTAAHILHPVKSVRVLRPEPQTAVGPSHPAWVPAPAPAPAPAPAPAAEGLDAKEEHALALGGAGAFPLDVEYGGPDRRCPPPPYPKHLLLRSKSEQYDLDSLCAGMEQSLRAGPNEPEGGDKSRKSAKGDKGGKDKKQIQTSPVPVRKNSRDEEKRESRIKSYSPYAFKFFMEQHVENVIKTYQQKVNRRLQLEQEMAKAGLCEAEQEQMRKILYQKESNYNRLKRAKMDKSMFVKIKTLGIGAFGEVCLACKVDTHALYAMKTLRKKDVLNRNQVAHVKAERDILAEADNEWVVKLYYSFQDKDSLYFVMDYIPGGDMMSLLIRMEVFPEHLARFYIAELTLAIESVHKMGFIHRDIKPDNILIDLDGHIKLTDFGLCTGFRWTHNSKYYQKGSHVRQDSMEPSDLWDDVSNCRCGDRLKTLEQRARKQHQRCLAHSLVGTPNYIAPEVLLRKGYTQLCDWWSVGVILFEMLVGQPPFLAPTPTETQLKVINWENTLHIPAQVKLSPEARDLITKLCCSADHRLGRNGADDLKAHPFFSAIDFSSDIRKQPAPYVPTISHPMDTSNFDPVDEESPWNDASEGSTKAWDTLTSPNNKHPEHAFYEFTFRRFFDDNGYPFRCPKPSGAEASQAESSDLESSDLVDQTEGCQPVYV
Sequence of Serine/threonine-protein kinase pim-2 (Homo sapiens) (Q9P1W9 whole entry, looked up, the tested form may be a part): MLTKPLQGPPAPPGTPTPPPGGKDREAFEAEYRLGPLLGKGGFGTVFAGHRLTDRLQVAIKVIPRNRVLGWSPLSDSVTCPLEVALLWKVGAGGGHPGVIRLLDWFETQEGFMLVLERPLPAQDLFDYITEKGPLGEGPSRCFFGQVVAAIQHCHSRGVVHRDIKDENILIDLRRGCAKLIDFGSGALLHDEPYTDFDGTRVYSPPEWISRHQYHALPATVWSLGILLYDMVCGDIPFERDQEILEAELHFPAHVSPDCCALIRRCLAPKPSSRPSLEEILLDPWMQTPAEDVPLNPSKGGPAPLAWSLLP

O=C(Nc1cccc([C@@H]2CN(c3ncnc4[nH]ccc34)CCN2CCO)c1)Nc1c(F)cccc1N1CCCC1
inhibition [1]: 100%
inhibition [2]: 33%
inhibition [3]: 9.6%
inhibition [4]: 80%
inhibition [5]: 71%
inhibition [6]: 54%
inhibition [7]: 65%
inhibition [8]: 99%
inhibition [9]: 78%
inhibition [10]: 93%
inhibition [11]: 26%
inhibition [12]: 75%
inhibition [13]: 94%
inhibition [14]: 100%
inhibition [15]: 100%

O=C(Nc1cccc([C@H]2CCCN(c3ncnc4[nH]ccc34)C2)c1)Nc1ccccc1N1CCCC1
inhibition [16]: 100%
inhibition [17]: 0.25%
inhibition [18]: 100%
inhibition [19]: 71%
inhibition [20]: 14%
inhibition [21]: 8.3%
inhibition [22]: 71%
inhibition [23]: 100%
inhibition [24]: 63%
inhibition [25]: 35%
inhibition [26]: 90%
inhibition [27]: 62%
